Experiment [1] has as its system CHIKV strain of La Réunion outbreak (LR2006-OPY1) with GFP modification in 5′. The experiment is described as follows: microbe, parasite or virus in culture. The experiment is classed as cell-based, Chikungunya virus. The note with it: infected HEK293T cells; for inhibition at 1 µM / IC50: Chikungunya virus, HEK-293T; for inhibition at 1 µM: compounds at 1 μM, MOI 0.1, 22 h, values above 100 lowered to 100, read-out: % CHIKV Inhibition Mean (n = 2); for IC50: second round of experiments. As for the experimental part: The ability of the compounds to inhibit viral replication was assessed with an experiment in which infected cells were treated by compounds of formula (Ic) at 1 μM. As a positive control for inhibition of Chikungunya, Ribavirin was used. Toxicity of the compounds was assessed in parallel.
Human embryonic kidney cells 293T (HEK293T, CRL-11268) were maintained in Dulbecco's modified Eagle's Medium (DMEM, 31966-021, Thermo Fisher Scientific) supplemented with 10% of fetal bovine serum (FBS), penicillin and streptomycin. After removal of the medium, cells were washed with Ca^2+ and Mg^2+-free salt solution to remove all traces of serum. After aspiration of wash solution, cells were dissociated with 0.25% Trypsin-EDTA solution and incubated 30 s at least in 37° C. incubator. Concentration of cell suspension was determined by an automatic cell counter (EVE, NanoEntek) and, if needed, adjusted to 0.33×10^6 cells/mL with DMEM medium supplemented with 10% FBS.
100 μL of the cell suspension were dispatched in a ViewPlate-96 Black (6005182, PerkinElmer) and in a transparent 96-well cell culture plate (655180, Greiner bio-one). After an incubation for 24 h at 37° C. under 5% of CO2, compounds were added at the proper concentration.
An intermediate dilution was prepared with DMSO (D8418, Sigma) at 2 mM in a 96-well V-bottom microplate from the stock solution:
An intermediate dilution was prepared with DMSO (D8418, Sigma) at 25 mM in a 96-well V-bottom microplate from the stock solution:
Perform serial dilution in 2 μL of DMSO 13 times to reach 0.0015 mM. Proceed as follows in table III:
For both screen and determination of IC50, 1 μL of each solution was added in a 1 mL Masterblock 96 wells (Greiner bio-one, 780261) containing 1 mL of DMEM medium. As a positive control, 5 μL of a 80 mM Ribavirin solution (R9644, Sigma) is added to 1 mL of DMEM. On the other hand, DMSO is used as a negative control.
[…]. Vector Borne Zoonotic Dis. 2006; 6 (4)). This modified virus was used to infect cells at MOI 0.1. […].
Medium was removed after 22 h at 37° C. under 5% of CO2 and cells were washed as described above. 60 μL of RIPA buffer (50 mM Tris-HCl pH8, 100 mM NaCl, 1 mM MgCl2, 1% Triton X-100) was added to cells and incubated for at least 20 min before reading fluorescence signal. Pierce 660 nm Protein Assay Reagent (22660, Thermo scientific) was used to normalize fluorescence signal by protein quantity.
• A first round of experiments has been performed wherein the results are expressed as inhibition percentage, which is calculated as follows, through the following steps: • 1. Fluorescence intensity (FI)/Absorbance 660 nm (A660)=A • This ratio allows considering the infection (GFP virus) to the protein amount. • 2. A′=A−background noise of non-infected plate, • 3. B=Fluorescence intensity (FI)/Absorbance 660 nm (A660) of infected but non treated plates, • 4. C=A′/B, which is then converted as the percentage of infection after treatment, compared to non-treated sample, and subsequently as the infection percentage. For instance, a value of 100 in Table IV here below means that, after treatment, the signal attributed to GFP fluorescence is abolished, which is correlated to the absence of infection. • 5. C′=100-C
This value corresponds to the inhibition's percentage.
The following Table IV encompasses said C′ value for some compounds, as calculated above with a mean of 2 experiments, and corresponding standard deviation.
Some values were originally above 100. In these cases, the value has been lowered to 100. This means that some molecules also have an impact on the viability of the cells. In other words, the A value may be lower than the background noise.
Moreover, for each measure, the test was performed with Ribavirin as control. The value of the inhibition percentage was checked, giving 100%.

For the next experiment, the system named is RSV A2. Briefly: RSV inhibition (cytopathic effect) in HEp-2 cells using Viral ToxGlo assay. The class given is cell-based. The note with it: human respiratory syncytial virus; RSV A2, HEp-2 cells, MOI 0.5, 72 h p.i. Summed up: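 HEp-2 cells seeded overnight, then given compounds (≤1% DMSO final) in 2% FBS EMEM and infected right away with RSV A2 at MOI 0.5; uninfected wells used for cytotoxicity. After 72 h p.i. at 37 °C/5% CO2, cytopathic effect read by Viral ToxGlo luminescence after 20 min at room temperature.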
Background: Protection from cytopathic effect is a common read-out in antiviral testing.

A word on the inhibition: it is the share of the control response that was lost under treatment. Broadly, the IC50 is the concentration that inhibits the measured activity by half. High values mean weaker potency, low ones greater potency. Take `O=C(N=C1NCCCN1)c1ccc(Nc2cccc(C(=O)NCCC3CCCC3)c2)cc1` [compound 22, N-(2-cyclopentylethyl)-3-((4-((tetrahydropyrimidin-2(1H)-ylidene)carbamoyl)phenyl)amino)benzamide]: in experiment [1], the inhibition at 1 µM came to 94% and the half-inhibitory concentration (IC50) lay in the range of 100 to 400 nM.

The term EC50 denotes the concentration that produces a half-maximal response. Regarding `Cc1cc(C(=O)N=C2NCCCN2)ccc1Nc1cccc(C(=O)NCCC2CCCC2)c1` [compound 28, 4-((3-((2-cyclopentylethyl)carbamoyl)phenyl)amino)-3-methyl-N-(tetrahydropyrimidin-2(1H)-ylidene)benzamide], the inhibition at 1 µM in experiment [1] turned out to be 97%. The EC50 in the experiment on RSV A2 turned out to be 308 nM.

As for `NC(=O)c1ncn([C@@H]2O[C@H](CO)[C@@H](O)[C@H]2O)n1` [Ribavirin, reference compound], the “inhibition percentage (Ribavirin positive control)” value in experiment [1] (Ribavirin as control in each measure) amounted to 100%.

On to `O=C(N=C1NCCCN1)c1ccc(Nc2cccc(C(=O)NCCC3CCC3)c2)cc1` [compound 26, N-(2-cyclobutylethyl)-3-((4-((tetrahydropyrimidin-2(1H)-ylidene)carbamoyl)phenyl)amino)benzamide], for which, in experiment [1], the inhibition at 1 µM was found to be 97%.

Take `Cc1cc(C(=O)N=C2NCCCN2)ccc1Nc1cccc(C(=O)NCCC(C)C)c1` [compound 27, 4-((3-(isopentylcarbamoyl)phenyl)amino)-3-methyl-N-(tetrahydropyrimidin-2(1H)-ylidene)benzamide]: the inhibition at 1 µM in experiment [1] was found to be 96%. Further, the EC50 in the experiment with RSV A2 worked out at 365 nM.

As for `O=C(N=C1NCCCN1)c1ccc(Nc2cccc(C(=O)NCCC3CCCCC3)c2)cc1` [compound 24, N-(2-cyclohexylethyl)-3-((4-((tetrahydropyrimidin-2(1H)-ylidene)carbamoyl)phenyl)amino)benzamide], in experiment [1], the inhibition at 1 µM is 100% and the IC50 fell in the range of 100 to 400 nM.

On to `CC(C)CCNC(=O)c1cccc(Nc2ccc(C(=O)N=C3NCCCN3)cc2)c1` [compound 23, N-isopentyl-3-((4-((tetrahydropyrimidin-2(1H)-ylidene)carbamoyl)phenyl)amino)benzamide], for which, in experiment [1], the inhibition at 1 µM was determined as 98% and the IC50 is 100 to 400 nM.
